Drawing on ChEMBL document CHEMBL1150289, “Petiolins A-C, phloroglucinol derivatives from Hypericum pseudopetiolatum var. kiusianum” (Bioorg Med Chem, 2008), this text covers IC50 and MIC for 3 compounds.

For one assay, the system named is L1210. As to the kind of experiment: Cytotoxicity against mouse L1210 cells. The format is functional, cell-based.
For another assay, the system named is KB. As to the kind of experiment: Cytotoxicity against human KB cells. The format is functional, cell-based.
Assay [1] has as its system Trichophyton mentagrophytes. As to the kind of experiment: Antifungal activity against Trichophyton mentagrophytes. Format: functional.

In brackets after ≈: the same amount, converted by molar mass.

As to `CC(C)=CCCC1(C)C=CC2=C(O1)C(C)(C)C(=O)C(C(=O)C(C)C)=C2O` (configuration not stated) [PETIOLIN A], the values for the IC50 in the assay with L1210 and in the assay with KB were 2.5 µg/mL (≈ 6.97 µM) and 4.8 µg/mL (≈ 13.4 µM), respectively.
Taken in the same sequence, the figures for `CCC(C)C(=O)C1=C(O)C2=C(OC(C)(CCC=C(C)C)C=C2)C(C)(C)C1=O` (configuration not stated) [PETIOLIN B] were above 10 µg/mL and 9.6 µg/mL (≈ 25.8 µM).
As to `CC(C)=CCC[C@@](C)(O)[C@@H]1CC2=C(O1)/C(=C(/O)C(C)C)C(=O)C(C)(C)C2=O` [PETIOLIN C], the minimal inhibitory concentration (MIC) (commonly the lowest concentration found to suppress growth) in assay [1] came out at 33.3 µg/mL (≈ 88.4 µM). Also, the IC50 – broadly, the point on the concentration scale where inhibition reaches its midpoint – in the assay on L1210 turned out to be 3.3 µg/mL (≈ 8.77 µM); in the assay with KB it was 4.9 µg/mL (≈ 13 µM).
